From PubChem BioAssay (NCI)
Values joined by “and” are separate entries in the source; they are usually repeats but may differ in a detail not shown here. Identical values can stand only once.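 Cultured in 96-well plates, cells were exposed to test compound for 48 hours across five concentrations. At the GI50, growth is halved. TGI is the concentration that stops growth completely.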 Where a SMILES comes first, the peptide text is derived from it. [ ]: non-standard residue; d: D form. Phe(4-Cl) = N[CH](Cc1ccc(Cl)cc1)C(=O)O; 2Nal = N[CH](Cc1ccc2ccccc2c1)C(=O)O; 3Pal = N[CH](Cc1cccnc1)C(=O)O

How the values were obtained:
Assay in all cases: NCI-60 cell line screen, 48 h
NCI-H23 lung = test system: NCI-H23 lung
UACC-257 melanoma = test system: UACC-257 melanoma
BT-549 breast = test system: BT-549 breast
HOP-92 NSCLC = test system: HOP-92 NSCLC
NCI-H226 lung = test system: NCI-H226 lung
HL-60(TB) leukemia = test system: HL-60(TB) leukemia
A498 renal = test system: A498 renal
OVCAR-8 ovarian = test system: OVCAR-8 ovarian
U251 CNS = test system: U251 CNS
COLO 205 colon = test system: COLO 205 colon
ACHN renal = test system: ACHN renal
HT29 colon = test system: HT29 colon
HS 578T breast = test system: HS 578T breast
786-0 renal = test system: 786-0 renal
DU-145 prostate = test system: DU-145 prostate
OVCAR-5 ovarian = test system: OVCAR-5 ovarian
OVCAR-3 ovarian = test system: OVCAR-3 ovarian
SK-MEL-5 melanoma = test system: SK-MEL-5 melanoma
UO-31 renal = test system: UO-31 renal
KM12 colon = test system: KM12 colon
SN12C renal = test system: SN12C renal
HCC-2998 colon = test system: HCC-2998 colon
K-562 leukemia = test system: K-562 leukemia
T-47D breast = test system: T-47D breast
M14 melanoma = test system: M14 melanoma
SF-539 CNS = test system: SF-539 CNS
CCRF-CEM leukemia = test system: CCRF-CEM leukemia
TK-10 renal = test system: TK-10 renal
NCI-H460 lung = test system: NCI-H460 lung
SW-620 colon = test system: SW-620 colon
SNB-19 CNS = test system: SNB-19 CNS
MDA-MB-435 = test system: MDA-MB-435
HCT-15 colon = test system: HCT-15 colon
RXF 393 renal = test system: RXF 393 renal
HOP-62 NSCLC = test system: HOP-62 NSCLC
MALME-3M melanoma = test system: MALME-3M melanoma
MCF7 breast = test system: MCF7 breast
NCI/ADR-RES ovarian = test system: NCI/ADR-RES ovarian
HCT-116 colon = test system: HCT-116 colon
A549 NSCLC = test system: A549 NSCLC
SF-268 CNS = test system: SF-268 CNS
MOLT-4 leukemia = test system: MOLT-4 leukemia
RPMI-8226 leukemia = test system: RPMI-8226 leukemia
PC-3 prostate = test system: PC-3 prostate
EKVX NSCLC = test system: EKVX NSCLC
SK-OV-3 ovarian = test system: SK-OV-3 ovarian
IGROV1 ovarian = test system: IGROV1 ovarian
SF-295 CNS = test system: SF-295 CNS
NCI-H522 lung = test system: NCI-H522 lung
CAKI-1 renal = test system: CAKI-1 renal
SK-MEL-2 melanoma = test system: SK-MEL-2 melanoma
LOX IMVI melanoma = test system: LOX IMVI melanoma
SK-MEL-28 melanoma = test system: SK-MEL-28 melanoma
MDA-MB-231 breast = test system: MDA-MB-231 breast
OVCAR-4 ovarian = test system: OVCAR-4 ovarian
SNB-75 CNS = test system: SNB-75 CNS
SR leukemia = test system: SR leukemia

## CC(=O)NC(Cc1ccc2ccccc2c1)C(=O)NC(Cc1ccc(Cl)cc1)C(=O)NC(Cc1cccnc1)C(=O)NC(CO)C(=O)NC(Cc1ccc(O)cc1)C(=O)NC(CCCN=C(N)N)C(=O)NC(CC(C)C)C(=O)NC(CCCN=C(N)N)C(=O)N1CCCC1C(=O)NC(C)C(N)=O (stereo not given) (Ac-[2Nal][Phe(4-Cl)][3Pal]SYRLRPA-NH2; configuration not given here)
NCI-H23 lung
  TGI: > 100000 nM
UACC-257 melanoma
  TGI: > 100000 nM
BT-549 breast
  TGI: > 100000 nM
HOP-92 NSCLC
  TGI: > 100000 nM
NCI-H226 lung
  TGI: > 100000 nM

## O=C(O)c1cn(C2CC2)c2cc(N3CCN(S(=O)(=O)c4ccc(Cl)c(Cl)c4)CC3)c(F)cc2c1=O
HL-60(TB) leukemia
  GI50: 2040 nM
  TGI: 5170 nM
A498 renal
  GI50: 2910 nM
  TGI: > 100000 nM
OVCAR-8 ovarian
  GI50: 3330 nM
  TGI: > 100000 nM
U251 CNS
  GI50: 3330 nM
  TGI: > 100000 nM
COLO 205 colon
  GI50: 3500 nM
  TGI: 11900 nM
ACHN renal
  GI50: 3100 nM
  TGI: > 100000 nM
HT29 colon
  GI50: 3770 nM
  TGI: > 100000 nM
HS 578T breast
  GI50: 4260 nM
  TGI: > 100000 nM
786-0 renal
  GI50: 4020 nM
  TGI: > 100000 nM
DU-145 prostate
  GI50: 4310 nM
  TGI: > 100000 nM
OVCAR-5 ovarian
  GI50: 4140 nM
  TGI: > 100000 nM
OVCAR-3 ovarian
  GI50: 3900 nM
  TGI: 44000 nM
SK-MEL-5 melanoma
  GI50: 2040 nM
  TGI: 4420 nM
UO-31 renal
  GI50: 2580 nM
  TGI: > 100000 nM
KM12 colon
  GI50: 3620 nM
  TGI: > 100000 nM
SN12C renal
  GI50: 2970 nM
  TGI: > 100000 nM
HCC-2998 colon
  GI50: 4460 nM
  TGI: > 100000 nM
K-562 leukemia
  GI50: 3920 nM
  TGI: > 100000 nM
T-47D breast
  GI50: 3770 nM
  TGI: > 100000 nM
BT-549 breast
  GI50: 2980 nM
  TGI: > 100000 nM
M14 melanoma
  GI50: 4060 nM
  TGI: > 100000 nM
SF-539 CNS
  GI50: 3390 nM
  TGI: > 100000 nM
CCRF-CEM leukemia
  GI50: 2610 nM
  TGI: > 100000 nM
HOP-92 NSCLC
  GI50: 1540 nM
  TGI: 5710 nM
TK-10 renal
  GI50: 4310 nM
  TGI: > 100000 nM
NCI-H460 lung
  GI50: 3660 nM
  TGI: > 100000 nM
SW-620 colon
  GI50: 4050 nM
  TGI: > 100000 nM
SNB-19 CNS
  GI50: 3250 nM
  TGI: > 100000 nM
MDA-MB-435
  GI50: 2970 nM
  TGI: > 100000 nM
HCT-15 colon
  GI50: 3300 nM
  TGI: > 100000 nM
RXF 393 renal
  GI50: 2980 nM
  TGI: 9510 nM
NCI-H226 lung
  GI50: 3580 nM
  TGI: > 100000 nM
HOP-62 NSCLC
  GI50: 4770 nM
  TGI: > 100000 nM
MALME-3M melanoma
  GI50: 2300 nM
  TGI: 5240 nM
MCF7 breast
  GI50: 2840 nM
  TGI: > 100000 nM
NCI/ADR-RES ovarian
  GI50: 4010 nM
  TGI: > 100000 nM
HCT-116 colon
  GI50: 3860 nM
  TGI: > 100000 nM
A549 NSCLC
  GI50: 3080 nM
  TGI: > 100000 nM
SF-268 CNS
  GI50: 4770 nM
  TGI: > 100000 nM
MOLT-4 leukemia
  GI50: 4000 nM
  TGI: > 100000 nM
RPMI-8226 leukemia
  GI50: 2530 nM
  TGI: 7590 nM

## Cc1cc2nc3ccc(N=Nc4ccc(N(C)C)cc4)cc3n(-c3ccccc3)c-2cc1=N
PC-3 prostate
  GI50: 14.3 nM
  TGI: 183 nM
EKVX NSCLC
  GI50: 23 nM
  TGI: 212 nM
HL-60(TB) leukemia
  GI50: 3.34 nM and 11.9 nM
SK-OV-3 ovarian
  GI50: 30.5 nM
  TGI: 187 nM
A498 renal
  GI50: 30.8 nM
  TGI: 1090 nM
NCI-H23 lung
  GI50: 25.3 nM
  TGI: 418 nM
OVCAR-8 ovarian
  GI50: 23.2 nM and 41.4 nM
U251 CNS
  GI50: 18.3 nM
  TGI: 114 nM
COLO 205 colon
  GI50: 3.43 nM
  TGI: 21.6 nM
IGROV1 ovarian
  GI50: 22.1 nM and 32.8 nM
ACHN renal
  GI50: 23.3 nM and 210 nM
HT29 colon
  GI50: 49.7 nM
  TGI: 1150 nM
HS 578T breast
  GI50: 16.8 nM
  TGI: 81.6 nM
786-0 renal
  GI50: 77.8 nM
  TGI: 505 nM
DU-145 prostate
  GI50: 20.8 nM
  TGI: 123 nM
OVCAR-5 ovarian
  GI50: 48.6 nM
  TGI: 1550 nM
SF-295 CNS
  GI50: 15.4 nM and 31.4 nM
NCI-H522 lung
  GI50: 19.9 nM and 147 nM
OVCAR-3 ovarian
  GI50: 12.1 nM
  TGI: 39 nM
CAKI-1 renal
  GI50: 36.9 nM
  TGI: 1070 nM
SK-MEL-2 melanoma
  GI50: 58 nM
  TGI: 317 nM
LOX IMVI melanoma
  GI50: 25.9 nM
  TGI: 117 nM
SK-MEL-5 melanoma
  GI50: 23.5 nM
  TGI: 143 nM
UO-31 renal
  GI50: 33.3 nM
  TGI: 820 nM
KM12 colon
  GI50: 17.4 nM
  TGI: 116 nM
SK-MEL-28 melanoma
  GI50: 57.3 nM
  TGI: 241 nM
HCC-2998 colon
  GI50: 43.1 nM
  TGI: 1600 nM
MDA-MB-231 breast
  GI50: 74 nM
  TGI: 466 nM
K-562 leukemia
  GI50: 6.86 nM
T-47D breast
  GI50: 2.96 nM
  TGI: 70.6 nM
M14 melanoma
  GI50: 65.7 nM
  TGI: 239 nM
SF-539 CNS
  GI50: 22.6 nM
  TGI: 153 nM
CCRF-CEM leukemia
  GI50: 8.58 nM and 16.2 nM
  TGI: 203 nM and 141 nM
HOP-92 NSCLC
  GI50: 32.5 nM
  TGI: 386 nM
OVCAR-4 ovarian
  GI50: 11.6 nM and 41.5 nM
  TGI: 120 nM and 802 nM
NCI-H460 lung
  GI50: 14.6 nM
  TGI: 52.7 nM
SW-620 colon
  GI50: 22.1 nM
  TGI: 120 nM
SNB-19 CNS
  GI50: 21.2 nM and 73.1 nM
  TGI: 1080 nM and 1610 nM
MDA-MB-435
  GI50: 40.2 nM
  TGI: 165 nM
HCT-15 colon
  GI50: 27.3 nM and 177 nM
  TGI: 259 nM and 1310 nM
HOP-62 NSCLC
  GI50: 40.6 nM
  TGI: 1750 nM
MCF7 breast
  GI50: 1.99 nM
  TGI: 14.3 nM
NCI/ADR-RES ovarian
  GI50: 279 nM
  TGI: 3130 nM
HCT-116 colon
  GI50: 17.7 nM
  TGI: 116 nM
A549 NSCLC
  GI50: 8.94 nM
  TGI: 264 nM
SF-268 CNS
  GI50: 33.2 nM
  TGI: 260 nM
MOLT-4 leukemia
  GI50: 14.6 nM
  TGI: 1920 nM
SNB-75 CNS
  GI50: 50 nM
  TGI: 1250 nM
RPMI-8226 leukemia
  GI50: 2.54 nM
  TGI: 20 nM
SR leukemia
  GI50: 20.8 nM
  TGI: 394 nM
